Where two headings read alike, the source gives them in different places.
Legend:
Format in all cases: cell-based
P. aeruginosa = experiment: MIC broth microdilution (CLSI); conditions: Pseudomonas aeruginosa
Procedure: (§1) Minimum inhibitory concentrations for representative example compounds herein were determined by a broth microdilution method in accordance with the Clinical and Laboratory Standards Institute (CLSI) guidelines. In brief, organism suspensions were adjusted to a 0.5 McFarland standard to yield a final inoculum between 3×10^5 and 7×10^5 colony-forming units (CFU)/mL. The inoculum was prepared by suspension of a colony from an agar plate that was prepared the previous day. Compound dilutions and inoculum were prepared in sterile, cation adjusted Mueller-Hinton Broth (Beckton Dickinson).
(§2) Bacteria were suspended in sterile saline and added to each assay plate to obtain a final concentration of 5×10^5 CFU/mL. An inoculum volume of 100 μL was added to wells containing 100 μL of broth with 2-fold serial dilutions of the test compound. All inoculated microdilution trays were incubated in ambient air at 35° C. for 18-24 hours. Following incubation, the lowest concentration of the compound that prevented visible growth (OD 600 nm<0.05) is recorded was the MIC. […] Performance of the assay was monitored by the use of laboratory quality-control strains and a standard compound with a defined MIC spectrum (neomycin), in accordance with CLSI guidelines.

A. baumannii = experiment: MIC broth microdilution (CLSI); conditions: Acinetobacter baumannii
Procedure: as §1, §2

S. aureus = experiment: MIC broth microdilution (CLSI); conditions: for MIC: Staphylococcus aureus
Procedure: as §1, §2

K. aerogenes = experiment: MIC broth microdilution (CLSI); conditions: Klebsiella aerogenes; strain AEAE1042, MDR Clinical isolate (CDC CRE panel), CDC AR Bank 0161
Procedure: as §1, §2

P. mirabilis = experiment: MIC broth microdilution (CLSI); conditions: Proteus mirabilis; strain APMI1048, MDR Clinical isolate (CDC CRE panel), CDC AR Bank 0159
Procedure: as §1, §2

E. cloacae = experiment: MIC broth microdilution (CLSI); conditions: Enterobacter cloacae; strain AECL1089, MDR Clinical isolate (CDC CRE panel), CDC AR Bank 0154
Procedure: as §1, §2

C. freundii = experiment: MIC broth microdilution (CLSI); conditions: Citrobacter freundii, read-out: Activity (MIC)
Procedure: as §1, §2

S. enterica = experiment: MIC broth microdilution (CLSI); conditions: Salmonella enterica, read-out: Activity (MIC)
Procedure: as §1, §2

[1] = tested on: clinical isolates of multi-drug resistant bacterial pathogens including A. baumannii, MRSA, P. aeruginosa, and CRE; experiment: MIC secondary panel, overall statement; conditions: read-out: minimum inhibitory concentration (MIC) values
Procedure: as §1, §2
Several compounds of the disclosure (Compounds 1, 2, 3, and 6) were further evaluated against a secondary panel of clinical isolates of multi-drug resistant bacterial pathogens including A. baumannii, methicillin-resistant Staphylococcus aureus (MRSA), P. aeruginosa, and carbapenem-resistant Enterobacteriaceae (CRE).

Structure (SMILES): C[C@H](N)[C@@H]1CC[C@@H](N)[C@@H](O[C@@H]2[C@@H](N)[C@H](O)[C@@H](NC(=O)[C@@H](O)CCN)[C@H](O)[C@H]2O[C@@H]2O[C@H](CO)[C@@H](O[C@H]3O[C@@H](CN)[C@@H](O)[C@H](O)[C@H]3N)[C@H]2O)O1 [Compound 6, (S)-4-Amino-N-((1R,2S,3S,4R,5R,6S)-3-Amino-4-(((2R,3R,6S)-3-Amino-6-((S)-1-Aminoethyl)Tetrahydro-2H-Pyran-2-Yl)Oxy)-5-(((2S,3R,4S,5R)-4-(((2R,3R,4R,5S,6S)-3-Amino-6-(Aminomethyl)-4,5-Dihydroxytetrahydro-2H-Pyran-2-Yl)Oxy)-3-Hydroxy-5-(Hydroxymethyl)Tetrahydrofuran-2-Yl)Oxy)-2,6-Dihydroxycyclohexyl)-2-Hydroxybutanamide]
- MIC (P. aeruginosa; read-out: Activity (MIC), strain NPAE0006, Efflux KO, Aph(3')-IIb): < 16 µg/mL
- MIC (P. aeruginosa; read-out: Activity (MIC), strain NPAE0010, MexXY over-expressed, Aph(3')-IIb): < 16 µg/mL
- MIC (P. aeruginosa; read-out: Activity (MIC), strain NPAE1288, MDR Clinical isolate): < 16 µg/mL
- MIC (P. aeruginosa; read-out: Activity (MIC), strain NPAE1293, MDR Clinical isolate): < 16 µg/mL
- MIC (P. aeruginosa; read-out: Activity (MIC), strain NPAE1299, MDR Clinical isolate): < 16 µg/mL
- MIC (P. aeruginosa; read-out: Activity (MIC), strain NPAE1302, MDR Clinical isolate): < 16 µg/mL
- MIC (P. aeruginosa; read-out: Activity (MIC), strain NPAE1303, MDR Clinical isolate): < 16 µg/mL
- MIC (P. aeruginosa; read-out: Activity (MIC), strain NPAE1308, MDR Clinical isolate): > 16 µg/mL
- MIC (P. aeruginosa; read-out: Activity (MIC), strain NPAE1310, MDR Clinical isolate): < 16 µg/mL
- MIC (P. aeruginosa; read-out: Activity (MIC), strain NPAE1313, MDR Clinical isolate): < 16 µg/mL
- MIC (P. aeruginosa; read-out: Activity (MIC), strain NPAE1316, MDR Clinical isolate): < 16 µg/mL
- MIC (P. aeruginosa; read-out: Activity (MIC), strain NPAE1323, MDR Clinical isolate): < 16 µg/mL
- MIC (P. aeruginosa; strain NPAE0001, WT Aph(3')-IIb, QC, read-out: Activity (MIC)): < 16 µg/mL
- MIC (P. aeruginosa; strain NPAE0002, WT Aph(3')-IIb, read-out: Activity (MIC)): < 16 µg/mL
- MIC (P. aeruginosa; strain NPAE0359, aph(3')-IIb KO (tetR), read-out: Activity (MIC)): < 16 µg/mL
- MIC (A. baumannii; read-out: Activity (MIC), strain NABA0007, ΔadeJK efflux): < 16 µg/mL
- MIC (A. baumannii; read-out: Activity (MIC), strain NABA1427, MDR Clinical isolate): < 16 µg/mL
- MIC (A. baumannii; read-out: Activity (MIC), strain NABA1433, MDR Clinical isolate): < 16 µg/mL
- MIC (A. baumannii; read-out: Activity (MIC), strain NABA1434, MDR Clinical isolate): < 16 µg/mL
- MIC (A. baumannii; read-out: Activity (MIC), strain NABA1436, MDR Clinical isolate): < 16 µg/mL
- MIC (A. baumannii; read-out: Activity (MIC), strain NABA1437, MDR Clinical isolate): < 16 µg/mL
- MIC (A. baumannii; read-out: Activity (MIC), strain NABA1438, MDR Clinical isolate): < 16 µg/mL
- MIC (A. baumannii; read-out: Activity (MIC), strain NABA1439, MDR Clinical isolate): < 16 µg/mL
- MIC (A. baumannii; read-out: Activity (MIC), strain NABA1448, MDR Clinical isolate): < 16 µg/mL
- MIC (A. baumannii; read-out: Activity (MIC), strain NABA1449, MDR Clinical isolate): < 16 µg/mL
- MIC (A. baumannii; read-out: Activity (MIC), strain NABA1450, MDR Clinical isolate): < 16 µg/mL
- MIC (A. baumannii; strain NABA0006, WT parent, read-out: Activity (MIC)): < 16 µg/mL
- MIC (A. baumannii; strain NABA0020, AME negative strain, read-out: Activity (MIC)): < 16 µg/mL
- MIC (S. aureus; ATCC29213, strain NSAU001, wild-type, QC, ATCC 29213): < 16 µg/mL
- MIC (S. aureus; strain NSAU1004, MDR Clinical isolate): < 16 µg/mL
- Activity (MIC) (S. aureus; strain NSAU1015, MDR Clinical isolate): + (MIC threshold for positive activity (+) is ≤16 μg/mL)
- Activity (MIC) (S. aureus; strain NSAU1023, MDR Clinical isolate): + (MIC threshold for positive activity (+) is ≤16 μg/mL)
- Activity (MIC) (S. aureus; strain NSAU1063, MDR Clinical isolate): + (MIC threshold for positive activity (+) is ≤16 μg/mL)
- MIC (K. aerogenes): < 16 µg/mL
- MIC (P. mirabilis): < 16 µg/mL
- MIC (E. cloacae): < 16 µg/mL
- MIC (C. freundii): < 16 µg/mL
- MIC (S. enterica): < 16 µg/mL
- MIC [1]: ≤ 16 µg/mL
